Experimental data taken from article PMC10622552, “Engineering a scalable and orthogonal platform for synthetic communication in mammalian cells” (Nature Communications, 2023).

Experiments:
[1] = tested on: HEK293S GnTi- TetR sender cells; experiment: Flow cytometry of EmGFP-positive sender cells with and without doxycycline; format: cell-based, human; details: HEK293S GnTi- TetR senders prior to sorting; with dox
Protocol: HEK293T cells (ATCC® CRL3216™) or human embryonic kidney 293 S lacking N-acetylglucosaminyltransferase I and expressing the Tet repressor protein (HEK293S GnTI^- TetR; obtained from the group of N. Callewaert at the VIB-UGent Center for Medical Biotechnology; nico.callewaert@ugent.vib.be)[75] were plated in 24-well plates (Greiner) and upon reaching 10-20% confluency were transduced with lentivirus harboring the SUMO-tagged A’-A’ peptide with linker I2 (Supplementary Fig. S26) or SUMO-tagged A’-Γ or Γ’-A’ peptide with linker l4 (Supplementary Fig. S31), under the control of the major immediate–early (MIE) human cytomegalovirus (CMV) enhancer and promoter and two TetO operator sequences[69] followed by an internal ribosome entry site (IRES) from encephalomyocarditis virus (EMCV) controlling the expression of an emerald green fluorescent protein (EmGFP). In total, 50–100 μL lentivirus was added to the cells, containing transduction medium (DMEM (41966; Thermo Fisher Scientific) supplemented with 10% (v/v) heat-inactivated FBS (S-FBS-SA-015; Serana)). […] Cells were bulk-sorted or sorted as single cells for EmGFP by fluorescence-activated cell sorting (FACS) in 1:1 conditioned to growth media (conditioned medium being medium that has been in contact with cells for 24 hours and subsequently harvested and filtered with a 0.45-μm syringe filter (Merck)). […]

[2] = tested on: A-typeJAK/STAT receptor in HEK293T receiver cells; experiment: Sender-receiver co-culture, SEAP activity (Fig. 6b, S30); format: cell-based, human; details: 1.5 × 10^5 receivers + 6 × 10^5 senders; 1 μg/mL dox; 48 h, 37 °C; independent triplicates
Text: In detail, we observe a 6.6-fold increase in SEAP activity for receiver cells cultured with senders in the presence of dox compared to a co-culture with senders in the absence of the inducer and 9.7-fold increase compared to receiver cells cultured with control 293S GnTi^- cells; a response that is similar to previously engineered paracrine synthetic communication systems[31],[33],[34],[36],[37],[42], ranging from 1.5- to 20-fold in performance. To understand the origin of this activation level, we plated 4.5 × 10^5 sender cells incubated with doxycycline and measured 0.14 μM of secreted SUMO-tagged A’-A’ dipeptide after 48 h, by means of western blotting using an anti-Smt3 antibody (“Methods” and Supplementary Fig. S29). […]
SEAP concentration in cell culture medium was quantified in terms of absorbance increase due to para-nitrophenylphosphate (pNPP), using a commercially available SEAP assay kit (NBP2-25285, Novus Biologicals). […] Absorbance values were measured at 405 nm, at a controlled temperature of 25 °C, for 60 minutes, using a Tecan Spark 10 M plate reader (Tecan). […] Absorbance units are converted to amount of substrate conversion and SEAP activity is calculated from the slope of the time trace and expressed in units per litre (U/L). […]

With `C[C@H]1c2cccc(O)c2C(=O)C2=C(O)[C@]3(O)C(=O)C(C(N)=O)=C(O)[C@@H](N(C)C)[C@@H]3[C@@H](O)[C@@H]21` [doxycycline] the “EmGFP positive cells upon doxycycline, prior to sorting” value [1] was 55.0%, the “fold increase in SEAP activity vs co-culture without inducer” value [2] was 6.6 fold and the “fold increase in SEAP activity vs receivers with control 293S GnTi- cells” value [2] was 9.7 fold.
